Entries after “also recorded” stand apart in the source; their conditions may differ.
How the values were obtained:
[1] = test system: P. falciparum blood stage growth; experiment: Growth inhibition assay (GIA), flow cytometry; type: cell-based, Plasmodium falciparum; conditions: for inhibition of different P. falciparum lines: 3D7, W2mef, D10, E8B, XIE, HCS3, SA-dependent and SA-independent invasion
Protocol: P. falciparum was cultured as described. Parasites were maintained in culture media of RPMI-HEPES supplemented with 5% (vol/vol) heat inactivated (56° C. 1 hr) human serum (Australian Red Cross Blood Bank),. […] (Gibco), 10mM L-glutamine (Gibco) and 25 mM […]. Parasites were grown at 37° C., 2% hematocrit, O+ human erythrocytes (Australian Red Cross Blood Bank), 1% O2 4% CO2 95% N2 atmosphere. Sorbitol (Sigma-Aldrich) was used to synchronize cultures. 32. Persson K E, Lee C T, Marsh K, Beeson J G (2006) Development and optimization of high-throughput methods to measure Plasmodium falciparum-specific growth inhibitory antibodies. J Clin Microbiol 44: 1665-1673.33. Lambros C, Vanderberg J P (1979) Synchronization of Plasmodium falciparum erythrocytic stages in culture. J Parasitol 65: 418-420.
Heparin and K5 polysaccharides (Table 1) were tested for inhibitory activity against P. falciparum parasites using high throughput growth inhibitory assays (GlAs). Duplicate 25 μl suspensions of synchronized parasites, 2% parasitemia (32 hr trophozoite), 1% hematocrit with normal or enzymatically treated erythrocyctes, were incubated with inhibitory compounds in 96 well sterile U-bottom plates (Falcon). For humidification, outside wells were filled with sterile human tonicity phosphate-buffered saline (HT-PBS). Plates were incubated as for parasite culture for 44 hrs and analyzed. Parasites were stained with 10 μg/mL ethidium bromide (EtBr) (BioRad), HT-PBS, 1 hr in darkness. Cells were washed and re-suspended in 200 μL HT-PBS. Parasitemia was measured using FACSCalibur flow-cytometry. Data were analyzed using FlowJo (Tree Star), gating on intact erythrocytes and determining parasitemia by EtBr staining. Inhibitory effects of compounds were expressed as percent growth of uninhibited controls (HT-PBS) for each experiment.
Erythrocytes were treated with neuraminidase, chymotrypsin and trypsin as described previously. Erythrocytes were washed with RPMI-HEPES and incubated with neuraminidase ([…], 15 minutes), chymotrypsin (1 mg/mL, 45 minutes) or trypsin (100 μg/mL, […]) at 37° C. Neuraminidase treated bells were washed three times with RPMI-HEPES and chymotrypsin and trypsin treated cells were washed once with culture media and twice with RPMI-HEPES and then used in GIAs. 34. Persson K E, McCallum F J, Reiling L, Lister N A, Stubbs J, et al. (2008) Variation in use of erythrocyte invasion pathways by Plasmodium falciparum mediates evasion of human inhibitory antibodies. J Clin Invest 118: 342-351.

[2] = test system: P. falciparum merozoite invasion of erythrocytes; experiment: Live video microscopy of merozoite invasion; type: cell-based, Plasmodium falciparum; conditions: 100 μg/mL; 4529 seconds filming, 15 rupture events
Protocol: Parasites cultures of 5-10% late stage schizonts were filmed with video microscopy in normal culture media, 37° C. 6% CO2 with humidification with or without 100 μg/mL of inhibitory compounds added to cultures as described previously. 35. Gilson P R, Crabb B S (2009) Morphology and kinetics of the three distinct phases of red blood cell invasion by Plasmodium falciparum merozoites. Int J Parasitol 39: 91-96.
A mechanism of action of heparin was next determined using live time-lapse microscopy. In control parasite cultures, schizont rupture and step-wise invasion of erythrocytes by merozoites was readily observed (FIG. 7C). During merozoite invasion of erythrocytes, Applicant observed initial contact with erythrocyte surface resulting in brief deformation of erythrocytes, merozoite reorientation, mechanical invasion resulting in erythrocyte deformation, and erythrocyte re-shaping upon complete invasion, as reported previously. […] Initial contact of merozoites with the erythrocyte surface was also observed; however, contact between erythrocytes and merozoites was not sustained, and merozoites dissociated after various lengths of time (FIG. 7D). No successful invasion events were observed; additionally, reorientation of merozoites and deformation of erythrocytes were not clearly seen, although the observation of merozoite reorientation is limited due to microscope resolution. […]

[3] = biological target: T1, lactoferrin (Homo sapiens, UniProt P02788); experiment: Heparin-BSA binding assay (positive control protein); conditions: data not shown
T1 construct: purchased
T1 sequence (P02788 20-710, species assumed): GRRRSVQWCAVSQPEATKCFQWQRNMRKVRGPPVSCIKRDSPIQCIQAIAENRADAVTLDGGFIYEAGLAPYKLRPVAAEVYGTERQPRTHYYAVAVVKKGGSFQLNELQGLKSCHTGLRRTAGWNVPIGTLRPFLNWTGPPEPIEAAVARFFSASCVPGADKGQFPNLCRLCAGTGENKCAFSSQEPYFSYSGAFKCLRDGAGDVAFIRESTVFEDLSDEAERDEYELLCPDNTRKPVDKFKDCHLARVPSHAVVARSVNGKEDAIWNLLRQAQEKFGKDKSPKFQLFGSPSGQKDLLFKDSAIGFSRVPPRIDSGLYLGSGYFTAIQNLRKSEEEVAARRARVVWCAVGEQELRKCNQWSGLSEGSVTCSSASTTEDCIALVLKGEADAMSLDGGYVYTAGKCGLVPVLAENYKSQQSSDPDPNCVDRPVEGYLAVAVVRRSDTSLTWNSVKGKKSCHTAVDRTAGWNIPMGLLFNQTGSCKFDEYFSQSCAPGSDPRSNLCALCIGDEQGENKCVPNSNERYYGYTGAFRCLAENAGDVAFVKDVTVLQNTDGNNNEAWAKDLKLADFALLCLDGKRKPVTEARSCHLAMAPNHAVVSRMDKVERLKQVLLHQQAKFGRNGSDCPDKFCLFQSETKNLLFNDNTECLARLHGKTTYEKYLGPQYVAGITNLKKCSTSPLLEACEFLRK
Protocol: Recombinant merozoite antigens were coated (1 μg/mL) onto 96 well plates (Nunc Maxisorb) in HT-PBS overnight at 4° C. Plates were washed and blocked with 1% casein, 1 hr, room temperature. Plates were incubated with heparin-BSA conjugate with soluble inhibitors and detected with anti-BSA (rabbit) (Sigma-Aldrich) antibodies and anti-rabbit -HRP. Detection was performed with 2,2′-azino-bis(3-ethylbenzthiazoline-6-sulphonic acid) (Sigma-Aldrich) monitored for colour change and measured for absorbance at 405 nm. All incubations were performed in HT-PBS 0.1% casein 0:05% Tween20, 1 hr at room temperature. Plates were washed 3 times HT-PBS 0.05% Tween20 between incubations.

Heparin
inhibition of different P. falciparum lines [1]: inhibited to similar levels
inhibition of different P. falciparum lines ([1]; listed as Heparin): inhibited all parasite lines tested; also recorded: inhibited at equal levels
inhibition of invasion into enzyme-treated versus control erythrocytes ([1]; 3D7, neuraminidase, trypsin, chymotrypsin treated erythrocytes): equivalent
IC50, inhibition of P. falciparum blood stage growth in GIA ([1]; 3D7 parasite line, one cycle of parasite growth): 19 µg/mL
selection of heparin-resistant parasites ([1]; 3D7 selected once or twice with heparin 100 μg/mL for 48 hrs): no evidence that Applicant were able to select for increased resistance
IC50 of heparin in combination with AMA1-binding peptide ([1]; AMA1-binding peptide at 6.25 μg/mL): ~3 µg/mL
parasite growth over one cycle of replication ([1]; heparin 100 μg/mL): a very low level of parasite growth
combination with pyrimethamine ([1]; heparin with increasing pyrimethamine): acted in an additive manner
successful invasion events observed [2]: no successful invasion observed
inhibition of lactoferrin binding to heparin-BSA [3]: inhibited

Reference: patent US20120108538A1, “SULFATED POLYSACCHARIDES HAVING ANTIPLASMODIAL ACTIVITY AND METHODS AND PRODUCTS FOR IDENTIFYING ANTIPLASMODIAL ACTIVITY” (priority 2009, published 2012)
